Source: patent publication US6355799B1, “Substituted benzene compounds, process for their preparation, and herbicidal and defoliant compositions containing them” (ISK Americas Incorporated, priority 1997, dated 2002)

Experiments:
Assay type in all cases: in vivo
[1] = test system: redroot pigweed (Amaranthus retroflexus, AMARE); assay: Pre-emerge test, greenhouse herbicide activity screening; conditions: rated 14 days after application, 0 = no damage, 100 = complete death
Outline: (§1)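 Rating: 0–100 visual injury, 14 DAA. Application: acetone, 187 l/ha, 15–1000 g ai/ha, flat-fan track sprayer with nozzle 40–45 cm above soil or canopy. Post-emerge runs used 0.25% v/v surfactant on 2–3 leaf plants.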

[2] = test system: barnyardgrass (Echinochloa crus-galli, ECHCG); assay: as above; conditions: rated 14 days after application, 0 = no damage, 100 = complete death
Outline: (§2)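 Compounds in acetone were track-sprayed at 15–1000 g ai/ha: pre-emergence onto soil sown the previous day, then top-watered to incorporate and later bottom-watered; post-emergence onto 2–3 leaf plants with 0.25% v/v surfactant, bottom-watered only. Ratings on a 0–100 phytotoxicity scale were taken at day 14.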

[3] = test system: green foxtail (Setaria viridis, SETVI); assay: as above; conditions: rated 14 days after application, 0 = no damage, 100 = complete death
Outline: as §2

[4] = test system: ivyleaf morningglory (Ipomoea hederacea, IPOHE); assay: as above; conditions: rated 14 days after application, 0 = no damage, 100 = complete death
Outline: as §2

[5] = test system: johnsongrass (Sorghum halepense, SORHA); assay: as above; conditions: rated 14 days after application, 0 = no damage, 100 = complete death
Outline: as §2

[6] = test system: lambsquarters (Chenopodium album, CHEAL); assay: as above; conditions: rated 14 days after application, 0 = no damage, 100 = complete death
Outline: as §2

[7] = test system: large crabgrass (Digitaria sanguinalis, DIGSA); assay: as above; conditions: rated 14 days after application, 0 = no damage, 100 = complete death
Outline: as §2

[8] = test system: sicklepod (Cassia obtusifolia, CASOB); assay: as above; conditions: rated 14 days after application, 0 = no damage, 100 = complete death
Outline: as §2

[9] = test system: velvetleaf (Abutilon theophrasti, ABUTH); assay: as above; conditions: rated 14 days after application, 0 = no damage, 100 = complete death
Outline: as §2

[10] = test system: field corn (Zea mays L., var. Dekalb 535, CORN); assay: Pre-emerge test, crop safety; conditions: rated 14 days after application, 0 = no damage, 100 = complete death
Outline: as §1

[11] = test system: upland rice (Oryza sp., var. Tebonnet, RICE); assay: Pre-emerge test, crop safety; conditions: rated 14 days after application, 0 = no damage, 100 = complete death
Outline: as §1

[12] = test system: barnyardgrass (Echinochloa crus-galli, ECHCG); assay: Post-emerge test, greenhouse herbicide activity screening; conditions: post-emerge, 14 days after application, rating scale 0-100
Outline: as §1

[13] = test system: green foxtail (Setaria viridis, SETVI); assay: as above; conditions: post-emerge, 14 days after application, rating scale 0-100
Outline: as §1

[14] = test system: ivyleaf morningglory (Ipomoea hederacea, IPOHE); assay: as above; conditions: post-emerge, 14 days after application, rating scale 0-100
Outline: as §1

[15] = test system: johnsongrass (Sorghum halepense, SORHA); assay: as above; conditions: post-emerge, 14 days after application, rating scale 0-100
Outline: as §1

[16] = test system: lambsquarters (Chenopodium album, CHEAL); assay: as above; conditions: post-emerge, 14 days after application, rating scale 0-100
Outline: as §1

[17] = test system: large crabgrass (Digitaria sanguinalis, DIGSA); assay: as above; conditions: post-emerge, 14 days after application, rating scale 0-100
Outline: as §1

[18] = test system: redroot pigweed (Amaranthus retroflexus, AMARE); assay: as above; conditions: post-emerge, 14 days after application, rating scale 0-100
Outline: as §1

[19] = test system: sicklepod (Cassia obtusifolia, CASOB); assay: as above; conditions: post-emerge, 14 days after application, rating scale 0-100
Outline: as §1

[20] = test system: velvetleaf (Abutilon theophrasti, ABUTH); assay: as above; conditions: post-emerge, 14 days after application, rating scale 0-100
Outline: as §1

[21] = test system: field corn (Zea mays L., var. Dekalb 535, CORN); assay: Post-emerge test, crop safety; conditions: post-emerge, 14 days after application, rating scale 0-100
Outline: as §1

[22] = test system: upland rice (Oryza sp., var. Tebonnet, RICE); assay: Post-emerge test, crop safety; conditions: post-emerge, 14 days after application, rating scale 0-100
Outline: as §1

COc1c(Cl)cc(F)c(-n2c(=S)cc(C(F)(F)F)n(C)c2=O)c1NC(=S)c1ccc(F)cc1F [2-46]
Pre-emerge Herbicidal Activity, phytotoxicity rating (0-100), AMARE ([1]; 63 g ai/ha): 100 | Pre-emerge Herbicidal Activity, phytotoxicity rating (0-100), AMARE ([1]; 250 g ai/ha): 100 | Pre-emerge Herbicidal Activity, phytotoxicity rating (0-100), ECHCG ([2]; 63 g ai/ha): 0 | Pre-emerge Herbicidal Activity, phytotoxicity rating (0-100), ECHCG ([2]; 250 g ai/ha): 50 | Pre-emerge Herbicidal Activity, phytotoxicity rating (0-100), SETVI ([3]; 63 g ai/ha): 90 | Pre-emerge Herbicidal Activity, phytotoxicity rating (0-100), SETVI ([3]; 250 g ai/ha): 100 | Pre-emerge Herbicidal Activity, phytotoxicity rating (0-100), IPOHE ([4]; 63 g ai/ha): 0 | Pre-emerge Herbicidal Activity, phytotoxicity rating (0-100), IPOHE ([4]; 250 g ai/ha): 60 | Pre-emerge Herbicidal Activity, phytotoxicity rating (0-100), SORHA ([5]; 63 g ai/ha): 30 | Pre-emerge Herbicidal Activity, phytotoxicity rating (0-100), SORHA ([5]; 250 g ai/ha): 90 | Pre-emerge Herbicidal Activity, phytotoxicity rating (0-100), CHEAL ([6]; 63 g ai/ha): 100 | Pre-emerge Herbicidal Activity, phytotoxicity rating (0-100), CHEAL ([6]; 250 g ai/ha): 100 | Pre-emerge Herbicidal Activity, phytotoxicity rating (0-100), DIGSA ([7]; 63 g ai/ha): 30 | Pre-emerge Herbicidal Activity, phytotoxicity rating (0-100), DIGSA ([7]; 250 g ai/ha): 70 | Pre-emerge Herbicidal Activity, phytotoxicity rating (0-100), CASOB ([8]; 63 g ai/ha): 30 | Pre-emerge Herbicidal Activity, phytotoxicity rating (0-100), CASOB ([8]; 250 g ai/ha): 100 | Pre-emerge Herbicidal Activity, phytotoxicity rating (0-100), ABUTH ([9]; 63 g ai/ha): 50 | Pre-emerge Herbicidal Activity, phytotoxicity rating (0-100), ABUTH ([9]; 250 g ai/ha): 100 | Pre-emerge phytotoxicity rating (0-100), crop damage, CORN ([10]; 63 g ai/ha): 0 | Pre-emerge phytotoxicity rating (0-100), crop damage, CORN ([10]; 250 g ai/ha): 90 | Pre-emerge phytotoxicity rating (0-100), crop damage, RICE ([11]; 63 g ai/ha): 20 | Pre-emerge phytotoxicity rating (0-100), crop damage, RICE ([11]; 250 g ai/ha): 70 | phytotoxicity rating ECHCG ([12]; 63 g ai/ha): 0 | phytotoxicity rating ECHCG ([12]; 250 g ai/ha): 10 | phytotoxicity rating SETVI ([13]; 63 g ai/ha): 0 | phytotoxicity rating SETVI ([13]; 250 g ai/ha): 30 | phytotoxicity rating IPOHE ([14]; 63 g ai/ha): 0 | phytotoxicity rating IPOHE ([14]; 250 g ai/ha): 20 | phytotoxicity rating SORHA ([15]; 63 g ai/ha): 0 | phytotoxicity rating SORHA ([15]; 250 g ai/ha): 0 | phytotoxicity rating CHEAL ([16]; 63 g ai/ha): 10 | phytotoxicity rating DIGSA ([17]; 63 g ai/ha): 0 | phytotoxicity rating DIGSA ([17]; 250 g ai/ha): 0 | phytotoxicity rating AMARE ([18]; 63 g ai/ha): 30 | phytotoxicity rating AMARE ([18]; 250 g ai/ha): 70 | phytotoxicity rating CASOB ([19]; 63 g ai/ha): 0 | phytotoxicity rating CASOB ([19]; 250 g ai/ha): 0 | phytotoxicity rating ABUTH ([20]; 63 g ai/ha): 50 | phytotoxicity rating ABUTH ([20]; 250 g ai/ha): 100 | phytotoxicity rating CORN ([21]; 63 g ai/ha): 0 | phytotoxicity rating CORN ([21]; 250 g ai/ha): 20 | phytotoxicity rating RICE ([22]; 63 g ai/ha): 10 | phytotoxicity rating RICE ([22]; 250 g ai/ha): 30

COc1c(Cl)cc(F)c(-n2c(=O)cc(C(F)(F)F)n(C)c2=O)c1NC(=O)c1ccc2ccccc2c1 [2-75]
Pre-emerge Herbicidal Activity, phytotoxicity rating (0-100), AMARE ([1]; 63 g ai/ha): 100 | Pre-emerge Herbicidal Activity, phytotoxicity rating (0-100), AMARE ([1]; 250 g ai/ha): 100 | Pre-emerge Herbicidal Activity, phytotoxicity rating (0-100), ECHCG ([2]; 63 g ai/ha): 20 | Pre-emerge Herbicidal Activity, phytotoxicity rating (0-100), ECHCG ([2]; 250 g ai/ha): 100 | Pre-emerge Herbicidal Activity, phytotoxicity rating (0-100), SETVI ([3]; 63 g ai/ha): 100 | Pre-emerge Herbicidal Activity, phytotoxicity rating (0-100), SETVI ([3]; 250 g ai/ha): 100 | Pre-emerge Herbicidal Activity, phytotoxicity rating (0-100), IPOHE ([4]; 63 g ai/ha): 20 | Pre-emerge Herbicidal Activity, phytotoxicity rating (0-100), IPOHE ([4]; 250 g ai/ha): 60 | Pre-emerge Herbicidal Activity, phytotoxicity rating (0-100), SORHA ([5]; 63 g ai/ha): 20 | Pre-emerge Herbicidal Activity, phytotoxicity rating (0-100), SORHA ([5]; 250 g ai/ha): 60 | Pre-emerge Herbicidal Activity, phytotoxicity rating (0-100), CHEAL ([6]; 63 g ai/ha): 100 | Pre-emerge Herbicidal Activity, phytotoxicity rating (0-100), CHEAL ([6]; 250 g ai/ha): 100 | Pre-emerge Herbicidal Activity, phytotoxicity rating (0-100), DIGSA ([7]; 63 g ai/ha): 70 | Pre-emerge Herbicidal Activity, phytotoxicity rating (0-100), DIGSA ([7]; 250 g ai/ha): 100 | Pre-emerge Herbicidal Activity, phytotoxicity rating (0-100), CASOB ([8]; 63 g ai/ha): 100 | Pre-emerge Herbicidal Activity, phytotoxicity rating (0-100), CASOB ([8]; 250 g ai/ha): 100 | Pre-emerge Herbicidal Activity, phytotoxicity rating (0-100), ABUTH ([9]; 63 g ai/ha): 100 | Pre-emerge Herbicidal Activity, phytotoxicity rating (0-100), ABUTH ([9]; 250 g ai/ha): 100 | Pre-emerge phytotoxicity rating (0-100), crop damage, CORN ([10]; 63 g ai/ha): 0 | Pre-emerge phytotoxicity rating (0-100), crop damage, CORN ([10]; 250 g ai/ha): 0 | Pre-emerge phytotoxicity rating (0-100), crop damage, RICE ([11]; 63 g ai/ha): 30 | Pre-emerge phytotoxicity rating (0-100), crop damage, RICE ([11]; 250 g ai/ha): 80 | phytotoxicity rating ECHCG ([12]; 63 g ai/ha): 10 | phytotoxicity rating ECHCG ([12]; 250 g ai/ha): 50 | phytotoxicity rating SETVI ([13]; 63 g ai/ha): 30 | phytotoxicity rating SETVI ([13]; 250 g ai/ha): 80 | phytotoxicity rating IPOHE ([14]; 63 g ai/ha): 100 | phytotoxicity rating IPOHE ([14]; 250 g ai/ha): 100 | phytotoxicity rating SORHA ([15]; 63 g ai/ha): 20 | phytotoxicity rating SORHA ([15]; 250 g ai/ha): 40 | phytotoxicity rating CHEAL ([16]; 63 g ai/ha): 100 | phytotoxicity rating CHEAL ([16]; 250 g ai/ha): 100 | phytotoxicity rating DIGSA ([17]; 63 g ai/ha): 0 | phytotoxicity rating DIGSA ([17]; 250 g ai/ha): 20 | phytotoxicity rating AMARE ([18]; 63 g ai/ha): 100 | phytotoxicity rating AMARE ([18]; 250 g ai/ha): 100 | phytotoxicity rating CASOB ([19]; 63 g ai/ha): 100 | phytotoxicity rating CASOB ([19]; 250 g ai/ha): 100 | phytotoxicity rating ABUTH ([20]; 63 g ai/ha): 100 | phytotoxicity rating ABUTH ([20]; 250 g ai/ha): 100 | phytotoxicity rating CORN ([21]; 63 g ai/ha): 10 | phytotoxicity rating CORN ([21]; 250 g ai/ha): 15 | phytotoxicity rating RICE ([22]; 63 g ai/ha): 70 | phytotoxicity rating RICE ([22]; 250 g ai/ha): 80
